“Also recorded” adds a separate entry of the source.
Legend:
[1] = tested on: MOG-induced EAE; experiment: MOG-induced experimental autoimmune encephalomyelitis (EAE) murine model; format: in vivo, C57B1/6J mice; conditions: Compound 1 7.5 mg/kg p.o. from day 11, Monday, Wednesday and Friday, 3 weeks
Procedure: The EAE Model is an accepted model for the study of human CNS demyelinating diseases such as multiple sclerosis. The effects of Compound 1 were investigated in MOG-induced in an EAE murine model in female C57B1/6J mice. […] Compound 1 at 7.5 mg/kg was administered orally starting from day 11 (disease onset) on Monday, Wednesday and Friday for 3 consecutive weeks. The disease was induced by the single intradermal injection of MOG emulsified in Complete Freund's Adjuvant (CFA) on study day 0, followed by intraperitoneal supplemental immunostimulation with pertussis toxin (PT) carried out on study day 0, and again 48 hours later on study day 2.

[2] = tested on: Nrf2 pathway; experiment: Nrf2 pathway induction in THP-1 cells with or without KEAP1 knockdown (quantitative PCR); format: cell-based, human
Text: THP-1 (human acute monocytic leukemia cells) cells were used to evaluate the effects of Compound 1 on the Nrf2 pathway in an inflammation environment. Nuclear factor (erythroid-derived 2)-like 2 (Nrf2) is an anti-inflammatory transcription factor. Under normal conditions, Nrf2 is kept in the cytoplasm by Kelch like-ECH associated protein 1 (KEAP1), which degrades Nrf2 by ubiquitination. Nrf2 can also move into the nucleus and back into the cytoplasm as a CRM1 cargo. In the current study, Nrf2 was protected from degradation by knocking down KEAP1 with siRNA. Then, KEAP1-depleted cells were treated with TNFα to induce inflammation, and the ability of Compound 1 to reverse inflammation by up-regulation of the Nrf2 pathway was tested.
THP-1 (acute monocytic leukemia) cells were plated in two 10 cm culture dishes (6*10^6 cells/dish) with RPMI-1640 medium (Lonza) supplemented with 10% heat-inactivated fetal bovine serum (Invitrogen) and 2-mercaptoethanol to a final concentration of 0.05 mM. Cells in one dish were transfected with 50 nM of KEAP1 siRNA (Life Technologies, Silencer Select, siRNA ID# s18982) using Lipofectamine RNAiMax (Invitrogen), whereas the cells in the other dish were transfected with 50 nM of control siRNA, Block-iT (Invitrogen). Transfected cells were left for 72 h and the KEAP1 knockdown efficiency was calculated with quantitative PCR using a probe against KEAP1.
Next, the cells from each of the dishes were divided equally into 4 wells in different 6-well plates. One of the wells from each of the plates was pre-treated with 1 μM of Compound 1 for 1 h, followed by 20 ng/mL TNFα for 24 h. The other wells were treated with either 1 μM Compound 1 or 20 ng/mL TNFα or neither for 24 h. Following the treatment, RNA was extracted from the cells using an RNA extraction kit (Qiagen). RNA samples from each treatment group were reverse transcribed and real-time PCR was performed on the corresponding cDNA sequences using probes against Nrf2 and two of its downstream genes, NQO1 and EPHX1. THP-1 cells were transfected with KEAP1 siRNA. 40% knockdown efficiency was achieved. […]

[3] = target: T1, CRM1 (Homo sapiens, UniProt O14980); experiment: RevGFP assay: inhibition of CRM1 mediated nuclear export; format: cell-based; conditions: U2OS-RevGFP cells, ~1 hr with compound; read-out: Rev Export [IC50]
T1 construct: endogenous in cells; host or cells: U2OS-RevGFP cells
T1 sequence (O14980 whole entry): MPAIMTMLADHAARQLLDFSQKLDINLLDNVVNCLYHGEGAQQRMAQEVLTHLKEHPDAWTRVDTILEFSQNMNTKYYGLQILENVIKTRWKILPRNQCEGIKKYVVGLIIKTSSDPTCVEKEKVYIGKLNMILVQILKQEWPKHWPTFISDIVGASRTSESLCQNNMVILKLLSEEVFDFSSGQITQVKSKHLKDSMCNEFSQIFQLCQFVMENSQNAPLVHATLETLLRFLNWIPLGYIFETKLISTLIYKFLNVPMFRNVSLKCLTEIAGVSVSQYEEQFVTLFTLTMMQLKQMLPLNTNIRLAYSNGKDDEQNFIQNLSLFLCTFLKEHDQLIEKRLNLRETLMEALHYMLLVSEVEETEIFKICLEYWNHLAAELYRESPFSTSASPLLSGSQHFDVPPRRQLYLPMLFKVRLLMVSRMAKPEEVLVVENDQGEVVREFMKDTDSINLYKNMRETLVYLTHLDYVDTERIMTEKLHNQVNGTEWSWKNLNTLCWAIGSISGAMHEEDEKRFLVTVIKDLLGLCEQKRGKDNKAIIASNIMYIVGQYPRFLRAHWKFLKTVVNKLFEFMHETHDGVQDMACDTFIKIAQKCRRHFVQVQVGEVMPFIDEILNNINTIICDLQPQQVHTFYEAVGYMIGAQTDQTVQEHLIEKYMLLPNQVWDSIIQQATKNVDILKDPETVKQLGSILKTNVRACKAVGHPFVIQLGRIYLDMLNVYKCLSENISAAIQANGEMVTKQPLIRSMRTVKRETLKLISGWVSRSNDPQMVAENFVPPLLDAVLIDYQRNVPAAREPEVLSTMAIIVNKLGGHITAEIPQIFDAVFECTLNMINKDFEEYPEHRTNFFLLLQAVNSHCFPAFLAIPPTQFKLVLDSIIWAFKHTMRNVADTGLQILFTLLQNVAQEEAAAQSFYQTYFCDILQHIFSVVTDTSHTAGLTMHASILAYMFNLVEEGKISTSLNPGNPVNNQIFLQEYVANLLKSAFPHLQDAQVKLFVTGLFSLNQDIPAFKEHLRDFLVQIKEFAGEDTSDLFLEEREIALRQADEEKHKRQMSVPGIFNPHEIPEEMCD
Procedure: The inhibition of CRM1 mediated nuclear export by compounds of the invention was determined. The inhibitory activity of compounds for the CRM1 protein was determined in the RevGFP assay.
Experimental protocol: Rev is a protein from human immunodeficiency virus type 1 (HIV-1) and contains a nuclear export signal (NES) in its C-terminal domain and a nuclear localization signal (NLS) in its N-terminal domain. Nuclear export of Rev protein is dependent on the classical NES/CRM1 pathway (Neville et al, 1997, Kau et al, 2003). Nuclear accumulation of Rev is observed in cells treated with specific inhibitors of CRM1, such as LMB (Kau et al, 2003). In this assay, U2OS-RevGFP cells are seeded onto clear-bottom, black, 384-well plates the day before the experiment. Compounds are serially diluted 1:2 starting from 40 μM in a separate 384-well plate in DMEM, and then transferred onto cells. Cells are incubated with compound for ˜1 hr before fixation with 3.7% formaldehyde and nuclei staining with Hoechst 33258. The amount of GFP in cell nuclei was measured and compound IC50s were determined (Kau et al, 2003).

[4] = tested on: obese Zucker rats; experiment: Food intake and body weight in Zucker rats; format: in vivo
Procedure: Twenty-one (21) male Zucker rats aged 7 months were allocated into 3 groups of N=7 based on equivalent body weights and food intakes. An additional group of N=7 age matched Zucker lean controls were included as a control. Body weights and food and water intakes were measured at approximately the same time each day (14:30-15:30 h). On treatment days, dosing was at 14:30-15:30 h (approximately 2 hours before lights off).
The Zucker obese and lean controls were orally treated with vehicle (10 mL/kg dose volume; 0.5% Pluronic F68 and 0.5% PVP K29/32 in water) on each weekday. Both Compound 2 (1.5 mg/kg and 3 mg/kg) groups were orally treated on each weekday (10 mL/kg dose volume; 0.5% Pluronic F68 and 0.5% PVP K29/32 in water). Prior to the treatment phase, 4 days baseline data were collected. The treatment phase was for 16 days and a washout phase of 6 days was also included.

Row | IC50 [3] | Compound | disease score and severity [1] | EPHX1 expression ([2]; 1 μM Compound 1, presence or absence of TNFα) | Nrf2 expression ([2]; 1 μM Compound 1 alone, with or without KEAP1 knockdown) | Nrf2 signaling ([2]; 1 μM Compound 1 for 24 hrs with 20 ng/mL TNFα) | body weight gain versus Zucker vehicle group ([4]; 3 mg/kg oral) | daily food intake and body weight compared to Zucker control group ([4]; 1.5-3 mg/kg oral each weekday, 16 day treatment period)
1 | – | CC(C)(C)C(=O)NNC(=O)/C=C\n1cnc(-c2cc(C(F)(F)F)cc(C(F)(F)F)c2)n1 [Compound 1, (Z)-3-(3-(3,5-bis(trifluoromethyl)phenyl)-1H-1,2,4-triazol-1-yl)-N′-pivaloylacrylohydrazide] | significantly decreased disease score and severity; also recorded: decrease in disease score and severity | up-regulated the expression of EPHX1 in the presence or absence of TNFα | did not have any significant effect on Nrf2 expression | up-regulated Nrf2 signaling | – | –
2 | < 1000 nM | O=C(/C=C\n1cnc(-c2cc(C(F)(F)F)cc(C(F)(F)F)c2)n1)NNC(=O)CN1CCOCC1 [Compound 2, (Z)-3-(3-(3,5-bis(trifluoromethyl)phenyl)-1H-1,2,4-triazol-1-yl)-N′-(2-morpholinoacetyl)acrylohydrazide] | – | – | – | – | lower weight gain in comparison to the Zucker control group | dose-related decrease in daily food intake and body weight; also recorded: dose dependent decrease in daily food effect
